Consider four compounds from ChEMBL document CHEMBL1127663, “High-affinity and potent, water-soluble 5-amino-1,4-benzodiazepine CCKB/gastrin receptor antagonists containing a cationic solubilizing group” (J Med Chem, 1994).

Assay [1] has as its target T1, Cholecystokinin receptor type A (Rattus norvegicus, UniProt P30551).
T1 sequence (P30551 whole entry): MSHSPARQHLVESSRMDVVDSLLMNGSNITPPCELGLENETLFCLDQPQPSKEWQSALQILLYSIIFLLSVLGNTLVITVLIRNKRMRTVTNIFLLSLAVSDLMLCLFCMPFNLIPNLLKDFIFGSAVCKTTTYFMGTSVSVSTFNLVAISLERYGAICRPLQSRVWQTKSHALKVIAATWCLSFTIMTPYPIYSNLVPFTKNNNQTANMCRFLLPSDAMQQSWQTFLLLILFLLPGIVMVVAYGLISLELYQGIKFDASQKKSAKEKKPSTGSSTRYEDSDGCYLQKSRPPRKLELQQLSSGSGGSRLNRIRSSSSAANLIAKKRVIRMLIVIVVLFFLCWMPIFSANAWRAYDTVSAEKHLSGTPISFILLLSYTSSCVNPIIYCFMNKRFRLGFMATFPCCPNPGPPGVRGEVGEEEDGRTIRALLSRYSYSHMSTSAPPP
Kind of assay: Binding activity against Cholecystokinin type A receptor from rat pancreas using [125]BH CCK-8s as radioligand.

Assay [2] can be described thus: Binding activity against Cholecystokinin type B receptor from guinea pig cortex using [125]BH CCK-8s as radioligand.

By IC50 is commonly meant the midpoint of a concentration-inhibition curve. Low readings indicate inhibition by little substance, high ones a need for much substance. Regarding `Cc1cccc(NC(=O)NC2N=C(N3CC4CCC(CC4)C3)c3ccccc3N(C)C2=O)c1` (centres undefined), the IC50 in assay [1] stood at 19.9 nM.

The compound `Cc1cccc(NC(=O)N[C@H]2N=C(N3CC4CCC(CC4)C3)c3ccccc3N(C)C2=O)c1` yielded an IC50 in assay [1] of 6.5 nM.

For the compound `Cc1cccc(NC(=O)N[C@@H]2N=C(C3CCCCC3)c3ccccc3N(C)C2=O)c1`, the IC50 in assay [2] is 0.28 nM.

In the case of `Cc1cccc(NC(=O)NC2N=C(N3CCCCC3)c3ccccc3N(C)C2=O)c1` (centres undefined), the IC50 in assay [1] was 17 nM. This lies in the double-digit nanomolar range.
